The target in one data set is T1, hAMY1R (Homo sapiens, UniProt O60894+P30988).
T1 construct: expressed in transfected cells
As to the kind of experiment: hAMY1R competitive radioligand binding filter assay (125I-rAMY). Conditions: ± SE; membranes of hAMY1R overexpressing cells. On the procedure: (§1) The equilibrium dissociation constants (Kd) for the various receptor/radioligand interactions are determined from saturation binding analysis using the same reagents and buffers as described below for compound testing.
The receptor binding affinity (Ki) of rAMY, hCT, and hAMY agonist peptides are determined from a competitive radioligand binding filter assay. The assay buffer consists of (in mM) 50 HEPES, pH 7.1, 5 MgCl2, 5 KCl, 0.2% (w/v) bacitracin, 0.003% (w/v) saponin and is used to dilute radioligand and membrane preparation. Binding reactions are carried out in 0.1 mL total reaction volume in a polystyrene 96 deep-well assay block. […] Test compounds and non-specific binding (NSB—defined as 300 nM rAMY) are added to aliquots of radioactivity buffer. […] The binding reaction is initiated by the addition of 0.05 mL of 200 μg/mL hAMY1R diluted in assay buffer to the radioactivity. Assay blocks are gently vortexed, sealed with parafilm, and incubated at RT for approximately 20 hours. […] At the end of the incubation, bound ligand is separated from free by addition of an ice cold quench buffer consisting of 100 mM NaCl, 50 mM TRIS-HCl pH 7.1 and immediately collected over the filter mat by vacuum filtration with a TomTec 96 well filter harvester using the following filter protocol (Dry time, 7; Cycle 3 repeat, 0; Wash Time, 1; Soak Time, 1; 1st Aspirate Time, 4; Wash/Aspirate Time, 7; 2nd Aspirate, 4; air pressure 2 PSI).

The target of data set [1] is T2, human calcitonin receptor (hCTR) (Homo sapiens, UniProt P30988).
T2 construct: expressed in transfected cells; host or cells: membranes of UM-UC-3 (UMUC3) cells stably expressing human CTa
T2 sequence (P30988 25-474): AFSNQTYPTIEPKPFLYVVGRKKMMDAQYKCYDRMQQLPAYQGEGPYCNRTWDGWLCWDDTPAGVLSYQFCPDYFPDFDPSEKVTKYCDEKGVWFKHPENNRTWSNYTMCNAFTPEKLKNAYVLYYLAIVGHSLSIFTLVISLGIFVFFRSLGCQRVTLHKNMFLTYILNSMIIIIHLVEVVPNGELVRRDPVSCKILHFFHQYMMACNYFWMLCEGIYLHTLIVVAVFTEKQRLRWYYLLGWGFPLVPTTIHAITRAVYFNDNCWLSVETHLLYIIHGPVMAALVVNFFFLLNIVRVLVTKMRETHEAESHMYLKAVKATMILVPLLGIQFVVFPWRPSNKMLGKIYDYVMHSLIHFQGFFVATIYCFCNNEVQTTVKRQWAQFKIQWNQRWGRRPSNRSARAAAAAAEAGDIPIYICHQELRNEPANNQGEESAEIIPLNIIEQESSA
As to the kind of experiment: hCTR competitive radioligand binding filter assay (125I-hCT). Conditions: ± SE; membranes of hCTR overexpressing cells. On the procedure:
as §1
The receptor binding affinity (Ki) of rAMY, hCT, and hAMY agonist peptides on hCTR membranes is determined from a competitive radioligand binding filter assay.

In data set [2] the test system is pre-existing antibodies (ADA) in normal human serum. As to the kind of experiment: Pre-existing reactivity (ACE assay format). Particulars: >50 donors; treatment-naive normal human serum. On the procedure:
This assay assesses the presence of pre-existing antibodies (ADA) against the tested molecules in treatment-naive normal human serum (NHS). Diluted NHS is incubated overnight on a Pierce Streptavidin plate coated with biotinylated tested molecules. On the following day, the captured binding proteins are acid eluted, hard-coated to a Mesoscale (MSD) plate, and detected with a combination of biotin-labeled molecule and ruthenium-labeled streptavidin. If anti-drug antibodies are present, they will bind the labeled drug and the resulting signal is referred to as Tier 1 signal (expressed as electrochemiluminescence). This signal is confirmed in Tier 2 by adding excess unlabeled tested molecule in the detection step, which results in the suppression of the Tier 1 signal. The presence of pre-existing anti-drug antibodies is expressed as magnitude of the 90th percentile of Tier 2 inhibition. The 90th percentile of Tier 2 inhibition, is a statistical tool to assess the magnitude of specificity of Tier 1 reactivity. This 90th percentile is used to rank molecules in terms of ADA risk.

The structures appear in SMILES notation. Starred links: 1 amine or outer side, 2 acyl side, 3 side chain; linkers in the order of their positions; H or OH if unused. Positions of bridges follow the written chain, without caps; N, C: chain ends. Non-standard residues stand in square brackets, D forms with d. Residues, ends and D or L forms follow the SMILES beside them. Groups on a side chain read outwards from the residue. *: point of attachment. C20 diacid = O=C(O)CCCCCCCCCCCCCCCCCCC(=O)*; γGlu = O=C(O)[C@H](CCC(=O)[*:2])N[*:1]; αMeF = C[C@](N)(Cc1ccccc1)C(=O)O; NMeD = CN[C@@H](CC(=O)O)C(=O)O; NMeN = CN[C@@H](CC(N)=O)C(=O)O; Orn = NCCC[C@H](N)C(=O)O; CH2 = C([*:1])[*:2]

The term Ki denotes the equilibrium dissociation constant of an inhibitor or competing ligand from its target.

T1 sequence (O60894 27-148 partner, one chain of several): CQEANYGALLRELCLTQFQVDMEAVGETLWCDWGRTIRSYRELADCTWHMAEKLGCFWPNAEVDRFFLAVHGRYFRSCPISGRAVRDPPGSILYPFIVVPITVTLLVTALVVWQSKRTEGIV

With `CC(C)C[C@H](NC(=O)[C@H](CCCN)NC(=O)CNC(=O)[C@@H](NC(=O)[C@H](C)NC(=O)[C@@H]1CSCSC[C@H](NC(=O)CC[C@H](N)C(=O)O)C(=O)N[C@@H](CC(N)=O)C(=O)N[C@@H]([C@@H](C)O)C(=O)N[C@@H](C)C(=O)N[C@@H]([C@@H](C)O)C(=O)N1)[C@@H](C)O)C(=O)N[C@@H](C)C(=O)N[C@@H](CCC(=O)O)C(=O)N[C@@](C)(Cc1ccccc1)C(=O)N[C@@H](CC(C)C)C(=O)N[C@H](C(=O)N[C@@H](CCCNC(=N)N)C(=O)N[C@@H](CO)C(=O)N[C@@H](CO)C(=O)N[C@@H](CC(N)=O)C(=O)N(C)[C@@H](CC(N)=O)C(=O)N[C@@H](Cc1ccccc1)C(=O)NCC(=O)N1CCC[C@H]1C(=O)N[C@@H](CCCCNC(=O)CC[C@H](NC(=O)CC[C@H](NC(=O)CCCCCCCCCCCCCCCCCCC(=O)O)C(=O)O)C(=O)O)C(=O)N[C@@H](CC(C)C)C(=O)N1CCC[C@H]1C(=O)N1CCC[C@H]1C(=O)N[C@H](C(=O)N[C@@H](CCC(=O)O)C(=O)N[C@H](C(=O)NCC(=O)N[C@@H](CO)C(=O)N[C@@H](CC(N)=O)C(=O)N[C@H](C(=O)N[C@@H](Cc1ccc(O)cc1)C(N)=O)[C@@H](C)O)C(C)C)[C@@H](C)O)C(C)C` [Compound II] (γGlu-CNTATCATG[Orn]LAE[αMeF]LVRSSN[NMeN]FGPK([γGlu-γGlu-C20 diacid])LPPTEVGSNTY-NH2; linker 1-6 via CH2), the Ki at hAMY1R was found to be 0.017 ± 0.006 nM; in data set [1], 202 ± 45 nM. Also, the “Pre-existing Reactivity 90th percentile T2 inhibition” value in data set [2] stood at 48.8%.

For the compound `CC(C)C[C@H](NC(=O)[C@H](CCCN)NC(=O)CNC(=O)[C@@H](NC(=O)[C@H](C)NC(=O)[C@@H]1CSCSC[C@H](NC(=O)CC[C@H](N)C(=O)O)C(=O)N[C@@H](CC(N)=O)C(=O)N[C@@H]([C@@H](C)O)C(=O)N[C@@H](C)C(=O)N[C@@H]([C@@H](C)O)C(=O)N1)[C@@H](C)O)C(=O)N[C@@H](C)C(=O)N[C@@H](CCC(=O)O)C(=O)N[C@@](C)(Cc1ccccc1)C(=O)N[C@@H](CC(C)C)C(=O)N[C@H](C(=O)N[C@@H](CCCNC(=N)N)C(=O)N[C@@H](CO)C(=O)N[C@@H](CO)C(=O)N[C@@H](CC(N)=O)C(=O)N(C)[C@@H](CC(=O)O)C(=O)N[C@@H](Cc1ccccc1)C(=O)NCC(=O)N1CCC[C@H]1C(=O)N[C@@H](CCCCNC(=O)CC[C@H](NC(=O)CC[C@H](NC(=O)CCCCCCCCCCCCCCCCCCC(=O)O)C(=O)O)C(=O)O)C(=O)N[C@@H](CC(C)C)C(=O)N1CCC[C@H]1C(=O)N1CCC[C@H]1C(=O)N[C@H](C(=O)N[C@@H](CCC(=O)O)C(=O)N[C@H](C(=O)NCC(=O)N[C@@H](CO)C(=O)N[C@@H](CC(N)=O)C(=O)N[C@H](C(=O)N[C@@H](Cc1ccc(O)cc1)C(N)=O)[C@@H](C)O)C(C)C)[C@@H](C)O)C(C)C` [Compound IV, γE-CNTATCATG-Orn-LAE-αMeF-LVRSSN-NMeD-FGPKLPPTEVGSNTY-NH2] (γGlu-CNTATCATG[Orn]LAE[αMeF]LVRSSN[NMeD]FGPK([γGlu-γGlu-C20 diacid])LPPTEVGSNTY-NH2; linker 1-6 via CH2), the Ki at hAMY1R is 0.0296 ± 0.0099 nM; in data set [1], 665 ± 113 nM. Further, in data set [2], the “Pre-existing Reactivity 90th percentile T2 inhibition” value amounted to 33.2%.

In the case of `CC[C@H](C)[C@H](NC(=O)[C@@H]1CCCN1C(=O)CNC(=O)[C@H](Cc1ccccc1)NC(=O)[C@H](CC(=O)O)N(C)C(=O)[C@H](CC(N)=O)NC(=O)[C@H](CO)NC(=O)[C@H](CO)NC(=O)[C@H](CCCNC(=N)N)NC(=O)[C@@H](NC(=O)[C@H](CC(C)C)NC(=O)[C@](C)(Cc1ccccc1)NC(=O)[C@H](CCC(=O)O)NC(=O)[C@H](C)NC(=O)[C@H](CC(C)C)NC(=O)[C@H](CCCN)NC(=O)CNC(=O)[C@@H](NC(=O)[C@H](C)NC(=O)[C@@H]1CSCSC[C@H](NC(=O)[C@@H](N)CCCCNC(=O)CC[C@H](NC(=O)CC[C@H](NC(=O)CCCCCCCCCCCCCCCCCCC(=O)O)C(=O)O)C(=O)O)C(=O)N[C@@H](CCC(=O)O)C(=O)N[C@@H]([C@@H](C)O)C(=O)N[C@@H](C)C(=O)N[C@@H]([C@@H](C)O)C(=O)N1)[C@@H](C)O)C(C)C)C(=O)N[C@@H](CC(C)C)C(=O)N1CCC[C@H]1C(=O)N1CCC[C@H]1C(=O)N[C@H](C(=O)N[C@@H](CCC(=O)O)C(=O)N[C@H](C(=O)NCC(=O)N[C@@H](CO)C(=O)N[C@@H](CC(N)=O)C(=O)N[C@H](C(=O)N[C@@H](Cc1ccc(O)cc1)C(N)=O)[C@@H](C)O)C(C)C)[C@@H](C)O` [Compound VI, KCETATCATG-Orn-LAE-αMeF-LVRSSN-NMeD-FGPILPPTEVGSNTY-NH2] (H-K([γGlu-γGlu-C20 diacid])CETATCATG[Orn]LAE[αMeF]LVRSSN[NMeD]FGPILPPTEVGSNTY-NH2; linker 2-7 via CH2), the Ki came out at 0.0445 ± 0.0082 nM at hAMY1R and 235 ± 45 nM in data set [1]. Moreover, the “Pre-existing Reactivity 90th percentile T2 inhibition” value in data set [2] was determined as 43.9%.

Source of the values: patent US12551532B2, “Long-acting amylin receptor agonists and uses thereof” (Eli Lilly and Company, priority 2021, dated 2026).
